# Test results from patent publication US11053234B2 (GlaxoSmithKline Intellectual Property Development Limited, priority 2016, dated 2021).
# Structures can show the parent of a compound that is named as a salt.
# Target: T1, haematopoietic prostaglandin D synthase (H-PGDS) (Homo sapiens, UniProt O60760)
# T1 construct: Full length human H-PGDS cDNA (Invitrogen Ultimate ORF 10H13026) was amplified by PCR; 6-His (N); TEV protease cleavage site (N); made in house; host or cells: E. coli BL21 (DE3*), vector pET22b+
# T1 sequence (O60760 whole entry): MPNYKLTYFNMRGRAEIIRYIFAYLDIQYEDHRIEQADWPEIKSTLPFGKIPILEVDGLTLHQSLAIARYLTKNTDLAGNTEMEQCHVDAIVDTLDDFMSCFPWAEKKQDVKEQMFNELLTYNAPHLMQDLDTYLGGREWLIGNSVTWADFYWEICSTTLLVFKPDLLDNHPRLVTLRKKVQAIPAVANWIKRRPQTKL
# Test: H-PGDS RapidFire high throughput mass spectrometry assay (conversion of PGH2 to PGD2)
# Format: biochemical
# Conditions: 10 nM H-PGDS, PGH2 formed in situ by COX-2 from arachidonic acid; read-out: Potency Range (mean pIC50) (converted)
# Summary of the method: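 RapidFire SPE–MS read-out calculated percent conversion from relative PGD2 and PGF2α (substrate surrogate) levels. Recombinant full-length human H-PGDS (His-tag, E. coli) turned over PGH2, produced in situ at ˜10 μM by human COX-2 (FLAG-tag, Sf9 cells) acting on arachidonic acid.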
row,SMILES,IC50 [nM]
1,"CC(C)(O)[C@H]1CC[C@H](NC(=O)[C@H]2C[C@H](Oc3ccccc3OC(F)F)C2)CC1 [Example 278, (trans)-3-(2-(Difluoromethoxy)phenoxy)-N-((trans)-4-(2-hydroxypropan-2-yl)cyclohexyl)cyclobutanecarboxamide]",10 to 79.4
2,"CNC(=O)c1csc(NC(=O)[C@H]2C[C@H](Oc3cccc4cccnc34)C2)n1 [Example 196, N-Methyl-2-((trans)-3-(quinolin-8-yloxy)cyclobutanecarboxamido)thiazole-4-carboxamide, trifluoroacetic acid salt]",10 to 79.4
3,"Cc1n[nH]c(NC(=O)N2CC(Oc3cccc4scnc34)C2)c1C#N [Example 329, 3-(Benzo[d]thiazol-4-yloxy)-N-(4-cyano-3-methyl-1H-pyrazol-5-yl)azetidine-1-carboxamide]",100 to 1000
4,"O=C(NC1CCN(c2ncc(F)cn2)CC1)N1CC(Oc2cc(F)cc3scnc23)C1 [Example 118, 3-((6-Fluorobenzo[d]thiazol-4-yl)oxy)-N-(1-(5-fluoropyrimidin-2-yl)piperidin-4-yl)azetidine-1-carboxamide]",10 to 79.4
5,"CC(C)(C)OC(=O)N1CCC(NC(=O)N2CC(Oc3cccc4scnc34)C2)CC1 [Example 96, tert-butyl 4-(3-(benzo[d]thiazol-4-yloxy)azetidine-1-carboxamido)piperidine-1-carboxylate]",100 to 1000
6,"COc1ccc(F)cc1O[C@H]1C[C@H](C(=O)Nc2cccc(C#N)n2)C1 [Example 159, (trans)-N-(6-Cyanopyridin-2-yl)-3-(5-fluoro-2-methoxyphenoxy)cyclobutanecarboxamide]",10 to 79.4
7,"CC(C)(O)[C@H]1CC[C@H](NC(=O)[C@H]2C[C@H](Oc3cccc4ccoc34)C2)CC1 [Example 267, (trans)-3-(Benzofuran-7-yloxy)-N-((trans)-4-(2-hydroxypropan-2-yl)cyclohexyl)cyclobutanecarboxamide]",10 to 79.4
8,"O=C(N[C@H]1CC[C@H](N2CC(F)(F)C2)CC1)N1CC(Oc2cccc3scnc23)C1 [Example 57, 3-(Benzo[d]thiazol-4-yloxy)-N-((trans)-4-(3,3-difluoroazetidin-1-yl)cyclohexyl)azetidine-1-carboxamide]",100 to 1000
9,"O=C(Nc1nnc(C2CC2)s1)N1CC(Oc2cccc3scnc23)C1 [Example 333, 3-(Benzo[d]thiazol-4-yloxy)-N-(5-cyclopropyl-1,3,4-thiadiazol-2-yl)azetidine-1-carboxamide]",< 10
10,"O=C(N[C@H]1CC[C@H](N2CCOC2=O)CC1)N1CC(Oc2cccc3scnc23)C1 [Example 103, 3-(Benzo[d]thiazol-4-yloxy)-N-((trans)-4-(2-oxooxazolidin-3-yl)cyclohexyl)azetidine-1-carboxamide]",100 to 1000
11,"COc1ccc(F)cc1O[C@H]1C[C@H](C(=O)N[C@H]2CC[C@H](N3CCOCC3=O)CC2)C1 [Example 151, (trans)-3-(5-Fluoro-2-methoxyphenoxy)-N-((trans)-4-(3-oxomorpholino)cyclohexyl)cyclobutanecarboxamide]",100 to 1000
12,"O=C(Nc1nccs1)[C@H]1C[C@H](Oc2cccc3cccnc23)C1 [Example 184, trans-3-(8-Quinolinyloxy)-N-1,3-thiazol-2-ylcyclobutanecarboxamide]",< 10
13,"CC(C)(O)[C@H]1CC[C@H](NC(=O)[C@H]2C[C@H](Oc3cccc(F)c3)C2)CC1 [Example 289, (trans)-3-(3-Fluorophenoxy)-N-((trans)-4-(2-hydroxypropan-2-yl)cyclohexyl)cyclobutanecarboxamide]",100 to 1000
14,"O=C(Nc1ncc(CO)s1)[C@H]1C[C@H](Oc2cccc3cccnc23)C1 [Example 210, (trans)-N-(5-(Hydroxymethyl)thiazol-2-yl)-3-(quinolin-8-yloxy)cyclobutanecarboxamide]",10 to 79.4
15,"COc1ccc(F)cc1O[C@H]1C[C@H](C(=O)N[C@H]2CC[C@H](OC)CC2)C1 [Example 150, (trans)-3-(5-Fluoro-2-methoxyphenoxy)-N-((trans)-4-methoxycyclohexyl)cyclobutanecarboxamide]",10 to 79.4
16,"CC(C)(O)C(=O)N1CCC(NC(=O)[C@H]2C[C@H](Oc3cc(F)cc4scnc34)C2)CC1 [Example 303, (trans)-3-((6-Fluorobenzo[d]thiazol-4-yl)oxy)-N-(1-(2-hydroxy-2-methylpropanoyl)piperidin-4-yl)cyclobutanecarboxamide]",100 to 1000
17,CC(=O)c1csc(NC(=O)[C@H]2C[C@H](Oc3ccccc3OC(F)F)C2)n1 [Example 279],10 to 79.4
18,"CC(C)(O)[C@H]1CC[C@H](NC(=O)N2CC(Oc3cccc4scnc34)C2)CC1 [Example 108, 3-(Benzo[d]thiazol-4-yloxy)-N-((trans)-4-(2-hydroxypropan-2-yl)cyclohexyl)azetidine-1-carboxamide]",10 to 79.4

row,SMILES,IC50 [nM]
1,"CNC(=O)c1ccc(N2CC(NC(=O)[C@H]3C[C@H](Oc4cccc5scnc45)C3)C2)nc1 [Example 38, 6-(3-((trans)-3-(Benzo[d]thiazol-4-yloxy)cyclobutanecarboxamido)azetidin-1-yl)-N-methylnicotinamide]",10 to 79.4
2,"O=C(N[C@H]1CC[C@H](Nc2ncccn2)CC1)[C@H]1C[C@H](Oc2cc(F)ccc2OC(F)F)C1 [Example 10, (trans)-3-(2-(Difluoromethoxy)-5-fluorophenoxy)-N-((trans)-4-(pyrimidin-2-ylamino)cyclohexyl)cyclobutanecarboxamide]",10 to 79.4
3,"CC(C)(O)CO[C@H]1CC[C@H](NC(=O)N2CC(Oc3cccc4scnc34)C2)CC1 [Example 106, 3-(Benzo[d]thiazol-4-yloxy)-N-((trans)-4-(2-hydroxy-2-methylpropoxy)cyclohexyl)azetidine-1-carboxamide]",10 to 79.4
4,"O=C(NC1CN(c2ccccn2)C1)[C@H]1C[C@H](Oc2cccc3scnc23)C1 [Example 81, (trans)-3-(Benzo[d]thiazol-4-yloxy)-N-(1-(pyridin-2-yl)azetidin-3-yl)cyclobutanecarboxamide]",10 to 79.4
5,"Cc1nccc(N2CC(NC(=O)[C@H]3C[C@H](Oc4cccc5scnc45)C3)C2)n1 [Example 50, (trans)-3-(Benzo[d]thiazol-4-yloxy)-N-(1-(2-methylpyrimidin-4-yl)azetidin-3-yl)cyclobutanecarboxamide]",10 to 79.4
6,"COCCNc1nccc(N2CC(NC(=O)[C@H]3C[C@H](Oc4cccc5scnc45)C3)C2)n1 [Example 72, (trans)-3-(Benzo[d]thiazol-4-yloxy)-N-(1-(2-((2-methoxyethyl)amino)pyrimidin-4-yl)azetidin-3-yl)cyclobutanecarboxamide]",100 to 1000
7,"CC(=O)c1cnc(NC(=O)[C@H]2C[C@H](Oc3cccc4cccnc34)C2)s1 [Example 202, (trans)-N-(5-Acetylthiazol-2-yl)-3-(quinolin-8-yloxy)cyclobutanecarboxamide]",10 to 79.4
8,"Cc1cnnc(N2CC(NC(=O)[C@H]3C[C@H](Oc4cccc5scnc45)C3)C2)c1 [Example 241, (trans)-3-(Benzo[d]thiazol-4-yloxy)-N-(1-(5-methylpyridazin-3-yl)azetidin-3-yl)cyclobutanecarboxamide, trifluoroacetic acid salt]",10 to 79.4
9,CC(O)[C@H]1CC[C@H](NC(=O)[C@H]2C[C@H](Oc3cc(F)ccc3OC(F)F)C2)CC1 (mixture of isomers) [Example 26],10 to 79.4
10,"CS(=O)(=O)N1CCC(NC(=O)N2CC(Oc3cccc4scnc34)C2)CC1 [Example 97, 3-(Benzo[d]thiazol-4-yloxy)-N-(1-(methylsulfonyl)piperidin-4-yl)azetidine-1-carboxamide]",100 to 1000
11,"CC(O)(CO[C@H]1CC[C@H](NC(=O)N2CC(Oc3cccc4scnc34)C2)CC1)C1CC1 (mixture of isomers) [Example 100, Racemic 3-(Benzo[d]thiazol-4-yloxy)-N-((trans)-4-(2-cyclopropyl-2-hydroxypropoxy)cyclohexyl)azetidine-1-carboxamide]",10 to 79.4
12,"CC(C)(C)c1nnc(NC(=O)[C@H]2C[C@H](Oc3cc(F)ccc3OC(F)F)C2)o1 [Example 16, (trans)-N-(5-(tert-Butyl)-1,3,4-oxadiazol-2-yl)-3-(2-(difluoromethoxy)-5-fluorophenoxy)cyclobutanecarboxamide]",10 to 79.4
13,"CN(C)C(=O)c1csc(NC(=O)[C@H]2C[C@H](Oc3cccc4cccnc34)C2)n1 [Example 197, N,N-Dimethyl-2-((trans)-3-(quinolin-8-yloxy)cyclobutanecarboxamido)thiazole-4-carboxamide, trifluoroacetic acid salt]",< 10
14,"CC(C)(O)[C@H]1CC[C@H](NC(=O)N2CC(Oc3cc(F)ccc3OC(F)F)C2)CC1 [Example 1, 3-(2-(Difluoromethoxy)-5-fluorophenoxy)-N-((trans)-4-(2-hydroxypropan-2-yl)cyclohexyl)azetidine-1-carboxamide]",100 to 1000
15,"O=C(Nc1nc(C2CC2)cs1)[C@H]1C[C@H](Oc2cccc3scnc23)C1 [Example 138, (trans)-3-(Benzo[d]thiazol-4-yloxy)-N-(4-cyclopropylthiazol-2-yl)cyclobutanecarboxamide]",< 10
16,"NC(=O)c1ccc(N2CC(NC(=O)[C@H]3C[C@H](Oc4cccc5scnc45)C3)C2)nc1 [Example 36, 6-(3-((trans)-3-(Benzo[d]thiazol-4-yloxy)cyclobutanecarboxamido)azetidin-1-yl)nicotinamide]",10 to 79.4
17,"O=C1NCC[C@@H]1NC(=O)N1CC(Oc2cccc3scnc23)C1 [Example 99, (S)-3-(Benzo[d]thiazol-4-yloxy)-N-(2-oxopyrrolidin-3-yl)azetidine-1-carboxamide]",100 to 1000
18,"CN1CCN([C@H]2CC[C@H](NC(=O)N3CC(Oc4cccc5scnc45)C3)CC2)C1=O [Example 102, 3-(Benzo[d]thiazol-4-yloxy)-N-((trans)-4-(3-methyl-2-oxoimidazolidin-1-yl)cyclohexyl)azetidine-1-carboxamide]",100 to 1000
